Measured values: paper PMC10237672, “Design and synthesis of novel anti-urease imidazothiazole derivatives with promising antibacterial activity against Helicobacter pylori” (PLOS ONE, 2023)
Values after ≈ are worked out from the molar mass of the structure shown. “Also recorded” adds a separate entry of the source.

Experiments:
[1] = tested on: H. pylori; experiment: MIC against H. pylori, agar dilution method; type: cell-based, Helicobacter pylori; details: Helicobacter pylori, ATCC43504; H. pylori ATCC 43504, agar dilution; read-out: MIC value against H. pylori ± SEM
[2] = target: T1, urease (Canavalia ensiformis, UniProt P07374); experiment: Enzyme kinetics study (Michaelis-Menten, Lineweaver-Burk) of urease inhibition; type: biochemical, Jack bean; details: urea substrate 0.5-2.0 mM, inhibitor 0, 1.5, 3.0, 4.5 μM, Lineweaver-Burk plot
T1 construct: purchased Sigma Aldrich
Experimental: The type of enzyme inhibition was determined by Michaelis-Menten kinetics experiments. In order to investigate the potential mechanism of action of the potent compound 2c, detailed kinetics studies were conducted. The initial inhibitory efficacy rates of enzyme activity were measured at four different concentrations of substrate (0.5, 1.0, 1.5 and 2.0 mM) in the presence or absence of compound 2c (0, 1.5, 3.0, 4.5 μM) against urease.
Kinetics studies were performed to determine the mode of action of compound 2c. The mechanism of inhibition of urease was determined by enzyme kinetics using urea as a substrate. To determine the type of inhibition, analyze the effect of inhibitor on Vmax and Km, a Lineweaver-Burk plot (reciprocal of reaction rates […] and reciprocal of substrate concentrations […]) was used.
Different concentrations of inhibitor 2c and substrate were used to perform kinetics. Four concentrations (0, 1.5, 3.0, 4.5 μM) of inhibitor 2c and four concentrations (0.5, 1.0, 1.5 and 2.0 mM) of substrate were used.

[3] = tested on: H. pylori; experiment: IC50 against H. pylori, micro broth dilution test; type: cell-based, Helicobacter pylori; details: Helicobacter pylori, ATCC43504; H. pylori ATCC 43504, micro broth dilution, 72 h, OD 600 nm; read-out: IC50 value against H. pylori ± SEM
[4] = target: T2, Jack bean urease (Canavalia ensiformis, UniProt P07374); experiment: biochemical; type: biochemical
T2 construct: purchased Sigma Aldrich
Experimental: Reaction mixture comprising 40 μL of buffer (K2HPO4: 10 mmol/L, urea: 100 mmol/L, […]: 10 mmol/L, EDTA: 1 /L mmol, pH = 8.2) and 5 U/mL enzyme (10 μL) were pre-incubated with 10 μL of synthesized compounds (1 mM) and substrate urea (1 mM) were incubated at room temperature in 96 well plate for half an hour. After the incubation at room temperature, absorbance was taken at specific wavelength (630 nm) employing a microplate reader (Bio-Tek, USA) with R1 and R2 reagents in each well. The reactions were measured in triplicate fashion. To calculate the inhibition percentage following equation was used.
Percentage inhibition = 100 –[tested compound/control compound] × 100.

T1 sequence (P07374 whole entry, looked up): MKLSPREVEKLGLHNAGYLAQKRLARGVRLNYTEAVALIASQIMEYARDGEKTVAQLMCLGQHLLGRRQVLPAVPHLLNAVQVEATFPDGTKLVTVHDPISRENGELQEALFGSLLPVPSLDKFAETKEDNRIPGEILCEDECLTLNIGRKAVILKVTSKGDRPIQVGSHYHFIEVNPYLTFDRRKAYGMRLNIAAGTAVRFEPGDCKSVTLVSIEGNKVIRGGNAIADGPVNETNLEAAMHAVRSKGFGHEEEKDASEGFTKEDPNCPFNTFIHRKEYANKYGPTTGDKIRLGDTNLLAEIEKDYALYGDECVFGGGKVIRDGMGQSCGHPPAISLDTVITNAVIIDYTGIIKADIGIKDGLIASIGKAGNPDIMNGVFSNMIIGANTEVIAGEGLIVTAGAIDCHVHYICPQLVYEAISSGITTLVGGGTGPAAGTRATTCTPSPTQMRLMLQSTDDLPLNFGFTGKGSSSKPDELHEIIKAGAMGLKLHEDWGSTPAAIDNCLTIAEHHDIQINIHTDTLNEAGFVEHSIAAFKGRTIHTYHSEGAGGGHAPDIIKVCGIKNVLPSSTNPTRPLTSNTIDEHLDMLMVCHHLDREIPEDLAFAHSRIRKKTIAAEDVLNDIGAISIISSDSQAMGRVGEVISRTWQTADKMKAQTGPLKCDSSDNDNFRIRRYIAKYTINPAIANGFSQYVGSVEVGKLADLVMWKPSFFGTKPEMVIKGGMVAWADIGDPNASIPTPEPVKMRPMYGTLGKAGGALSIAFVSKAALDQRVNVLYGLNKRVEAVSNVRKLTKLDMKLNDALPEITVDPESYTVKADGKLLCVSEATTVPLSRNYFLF
T2 sequence (P07374 whole entry, looked up): as above

With `CCCS(=O)(=O)Oc1cccc(-c2nc3sccn3c2-c2cccc(S(C)(=O)=O)c2)c1` [Compound 2c, 3-(5-(3-(Methylsulfonyl)phenyl)imidazo[2,1-b]thiazol-6-yl)phenyl propane-1-sulfonate] the MIC [1] was 800 µM (≈ 381 µg/mL), the melting point was 188 to 191 °C and the “type of urease inhibition” value [2] was “competitive inhibition; also recorded: competitive inhibitor”. For the same molecule, the IC50 [3] was 281 ± 21 µM, the IC50 [4] was 2.94 ± 0.05 µM and the “fold more potent than thiourea positive control (urease inhibition)” value ([4]; ratio of IC50 vs thiourea) was 8 fold.
